System: male participants
Assay: Male participants rated strength of erections and orgasms on a scale of 1 to 10 after ingesting PDE5 inhibitor and cannabis/THC
Format: in vivo, human

Measured: PDE5 inhibiting effect of THC taken alone

Protocol: Male participants rated the strength of their erections and orgasms, and female participants rated the strength of their threshold desire, arousal and orgasms, on a scale of 1 to 10.
This first time, the subject took the full prescription dose of sildenafil (100 mg) in pill form together with an infused cannabis edible containing 20 mg of THC.
The subject in Examples 1 and 2 further reduced the dosage of sildenafil to 40 mg, 30 mg, and 20 mg in stages, together with cannabis dosages that delivered 20 mg, 15 mg, or 10 mg of THC.
A test subject consumed ingestible dosage forms of cannabis and sildenafil. This first time, the subject took 50% of the full prescription dose of sildenafil (50 mg) in pill form together with an infused cannabis edible containing 20 mg of THC.
The subject in Example 4 further reduced the dosage of sildenafil to 40 mg and used the same cannabis dosage that delivered 20 mg of THC.
The subject in Examples 4 and 5 further reduced the dosage of sildenafil to 30 mg, 20 mg, and 10 mg in stages, together with cannabis dosages that delivered 20 mg, 15 mg, or 10 mg of THC.
A test subject consumed ingestible dosage forms of cannabis and sildenafil. This first time, the subject took 60% of the full prescription dose of sildenafil (60 mg) in pill form together with an infused cannabis edible containing 25 mg of THC.
The test subject in Example 7 further reduced the dosage of sildenafil to 40 mg and used a cannabis dosage that delivered 20 mg of THC.
The subject in Examples 7 and 8 further reduced the dosage of sildenafil to 30 mg, 20 mg, and 10 mg in stages, together with cannabis dosages that delivered 20 mg, 15 mg, or 10 mg of THC.

CCCCCc1cc(O)c2c(c1)OC(C)(C)[C@@H]1CCC(C)=C[C@@H]21 [THC, tetrahydrocannabinol]
no noticeable PDE5 inhibiting effect: Example 1: person | Example 4: person | Example 7: person | Example 10: person
